For one assay, the system named is Leishmania mexicana. Nature of the assay: Antimicrobial activity against Leishmania mexicana. It counts as functional, organism-based.
The next assay has as its system Leishmania. In words: Antimicrobial activity against Leishmania. It counts as functional.
Another assay deals with Plasmodium falciparum. In words: Antimicrobial activity against Plasmodium falciparum. Type of assay: functional, organism-based.
The subject of another assay is Leishmania major. Nature of the assay: Antimicrobial activity against Leishmania major. Type of assay: functional, organism-based.
Another assay concerns Trypanosoma cruzi. In words: Antimicrobial activity against Trypanosoma cruzi. Conditions: Trypanosoma cruzi. It counts as functional, organism-based.
For the next assay, the system named is Leishmania amazonensis. Nature of the assay: Antimicrobial activity against Leishmania amazonensis. Type of assay: functional, organism-based.
In a further assay the test system is Leishmania donovani. In words: Antimicrobial activity against Leishmania donovani. It counts as functional, organism-based.

Regarding `N=C(N)c1ccc(OCCCOc2ccc(C(=N)N)cc2)cc1` [PROPAMIDINE], the midpoint of inhibition with Leishmania mexicana, the IC50, lay at 10 µM.

Regarding `C(=N\Nc1ccccc1)/c1ccc(N2CCN(c3ccc(/C=N/Nc4ccccc4)cc3)CC2)cc1`, the half-inhibitory concentration (IC50) in the assay on Leishmania came out at 34 µM.

Consider `N=C(N)c1cccc(C(=N)N)c1-c1cc2ccccc2[nH]1`, for which, in the assay with Leishmania mexicana, inhibition was half-maximal at 3 µM (IC50).

Regarding `CN1CCN(C)C1c1ccc(N2CCN(c3ccc(C4N(C)CCN4C)cc3)CC2)cc1`, the IC50 in the assay on Leishmania came out at 100 µM; in the assay with Plasmodium falciparum it was 1 µM.

Consider `C[C@]12CC[C@H](O)C[C@@H]1CC[C@@H]1[C@@H]2CC[C@@]2(C)[C@H]1CC[C@@H]2[C@@](C)(O)c1ccncc1Cl`, for which the IC50 in the assay with Leishmania major came out at 8 µM; in the assay on Trypanosoma cruzi, 1 µM; with Leishmania amazonensis it was 1 µM.

`C[C@]12CC[C@H](O)C[C@@H]1CC[C@@H]1[C@@H]2CC[C@@]2(C)[C@H]1CC[C@@H]2[C@@](C)(O)C1CCCNC1` (stereo partly drawn): the figures for the IC50 in the assay on Leishmania major and with Trypanosoma cruzi were 13 µM and 23 µM, respectively.

As to `C[C@]12CC[C@H](O)C[C@@H]1CC[C@@H]1[C@@H]2CC[C@@]2(C)[C@H]1CC[C@@H]2[C@@](C)(O)c1cccnc1`, the results for the IC50 with Leishmania major and in the assay with Trypanosoma cruzi were 100 µM and 50 µM, respectively.

As for `N=C(N)c1ccc(OCCCCCOc2ccc(C(=N)N)cc2)cc1` [PENTAMIDINE], the IC50 in the assay on Leishmania mexicana and in the assay on Leishmania donovani was 1 µM throughout.

In the case of `C[C@]12CC[C@H](O)C[C@@H]1CC[C@@H]1[C@@H]2CC[C@@]2(C)[C@H]1CC[C@@H]2[C@@](C)(O)c1ccccn1`, the IC50 in the assay on Leishmania major came to 100 µM; in the assay with Trypanosoma cruzi it was 1 µM; in the assay with Leishmania amazonensis, 3 µM.

On to `N=C(N)c1ccc(/C=C/c2ccc(C(=N)N)cc2)cc1` [STILBAMIDINE], for which the midpoint of inhibition in the assay with Leishmania mexicana, the IC50, lay at 9 µM. This lies in the single-digit micromolar range.

`CCC(=O)N1CCCCC1[C@](C)(O)[C@H]1CC[C@H]2[C@@H]3CC[C@H]4C[C@@H](O)CC[C@]4(C)[C@H]3CC[C@@]21C` (stereo partly drawn): the half-maximal inhibitory concentration (IC50) in the assay on Leishmania major was 54 µM; in the assay on Trypanosoma cruzi, 65 µM.

`C[C@]12CC[C@H](O)C[C@@H]1CC[C@@H]1[C@@H]2CC[C@@]2(C)[C@H]1CC[C@@H]2[C@@](C)(O)c1ccncc1`: the IC50 amounted to 12 µM in the assay with Leishmania major, 1 µM in the assay with Trypanosoma cruzi and 1 µM in the assay with Leishmania amazonensis.

The values are drawn from ChEMBL document CHEMBL1212812, “Multi-target spectral moment QSAR versus ANN for antiparasitic drugs against different parasite species” (Bioorg Med Chem, 2010).
